Source: US8586555B2, “Immunomodulatory compositions, formulations, and methods for use thereof” (Dynavax Technologies Corporation, priority 2001, dated 2013)

Assays:
Format in all cases: cell-based
[1] = system: human peripheral blood mononuclear cells (hPBMC); assay: human PBMC assay, Example 5 (96 well plates, premixed); conditions: for IFN-α Mean / IFN-γ Mean: mean of donors 28051-28054
Protocol: (§1) Hexameric oligonucleotides were tested for immunomodulatory activity alone and complexed with lactic acid/glycolic acid copolymer microcarrier beads using a human peripheral blood mononuclear cells (hPBMC) assay. Peripheral blood was collected from healthy volunteers by venipuncture using heparinized syringes. Blood was layered onto a FICOLL® (Amersham Pharmacia Biotech) cushion and centrifuged. hPBMCs, located at the FICOLL® interface, were collected, then washed twice with cold phosphate buffered saline (PBS). The cells were resuspended and cultured in 48 well plates at 2×10^6 cells/mL at 37° C. in RPMI 1640 with 10% heat-inactivated human AB serum plus 50 units/mL penicillin, 50 μg/mL streptomycin, 300 μg/mL glutamine, 1 mM sodium pyruvate, and 1×MEM non-essential amino acids (NEAA).
(§2) Oligonucleotides were tested as single agents, or in combination with PLGA microspheres (unmodified or cationic). All oligonucleotides contained 100% phosphorothioate linkages and were tested at 20 μg/ml. The PLGA microcarriers were used at 250 μg/ml. When oligos were tested with PLGA microcarriers, the oligo and the microcarriers were added at the same time to the culture. The cells were cultured in the in the presence of test samples for 24 hours, then cell-free medium was collected from each well and assayed for IFN-γ and IFN-α concentration. Two different oligonucleotides were used as controls: a first oligonucleotide known to have immunostimulatory activity (a 22mer oligonucleotide containing an ISS (“ISS+,” 5′-[…]-3′(SEQ ID NO:2)) and a second oligonucleotide of similar sequence but lacking immunostimulatory activity (“ISS−,” 5′-[…]-3′ (SEQ ID NO:1)). SAC (PANSORBIN® CalBiochem, 1/5000 dilution) and a untreated culture were used as additional positive and negative controls, respectively. SAC contains Staph. aureus (Cowan I) cell material. All samples were assayed in duplicate.
(§3) IFN-γ and IFN-α were assayed using CYTOSCREEN™ ELISA kits from BioSource International, Inc., according to the manufacturer's instructions.
(§4) The immunomodulatory activity of the oligonucleotides used in Examples 3 and 4 was confirmed with the human PBMC assay using PBMCs from an additional four donors (donors 28051-28054). Oligonucleotides were tested alone or in combination with cationic PLGA as described in Example 3, except that 96 well plates were used instead of 48 well plates and the oligonucleotides were premixed with the cationic microspheres at room temperature for 15 minutes before they were added to the culture, rather than being added simultaneously to the culture.

[2] = system: human peripheral blood mononuclear cells (hPBMC); assay: human PBMC assay, Example 7 (oligo 20 μg/ml, cPLGA 100 μg/ml); conditions: for IFN-α Mean / IFN-γ Mean: mean of donors 28115-28118
Protocol: as §1, §2, §3, §4
Additional oligonucleotides, some incorporating modified bases, were tested for immunomodulatory activity in the human PBMC assay. Oligonucleotides were tested alone or in combination with cPLGA as described in Example 5. The oligonucleotides were premixed with the cationic PLGA microspheres for 15 minutes at room temperature at concentrations of 20 μg/ml and 100 μg/ml, respectively.

[3] = system: human peripheral blood mononuclear cells (hPBMC); assay: human PBMC assay, Example 4 (oligos and PLGA premixed 15 minutes); conditions: for IFN-α Mean / IFN-γ Mean: mean of donors 28044, 28045
Protocol: as §1, §2, §3
Additional hexameric and pentameric oligonucleotides were tested for immunomodulatory activity in the PBMC assay. Oligonucleotides 6-6 (5′-TCGAGA-3′), 6-8 (5′-GTCGAC-3′), 6-9 (5′-GTCGTT-3′), 6-2 (5′-TCGTTT-3′), 6-3 (5′-TTCGTT-3′), 6-4 (5′-TTTCGT-3′), 5-1 (5′-TCGTC-3′), and 5-2 (5′-TCGTT-3′) were tested alone or in combination with cationic PLGA as described in Example 3 except that the oligos and PLGA were premixed for 15 minutes room temperature before addition to the cultures. The test articles were assayed using PBMC isolated from donors 28044 and 28045.

[4] = system: human peripheral blood mononuclear cells (hPBMC); assay: human PBMC assay, Example 6
Protocol: as §1, §2, §3, §4
Additional oligonucleotides were tested for immunomodulatory activity in the human PBMC assay. Oligonucleotides were tested alone or in combination with cPLGA as described in Example 5.
Additional oligonucleotides were tested using hPBMCs from volunteers 154-157 using the same assay. Results, which are shown in Table 7, confirm the activity of oligonucleotides fitting the formula 5′-X1TCGX2-3′, where the oligonucleotide is a 3-6mer, X1 is zero or one nucleotide and X2 is zero to three nucleotides.

[5] = system: human peripheral blood mononuclear cells (hPBMC); assay: human PBMC assay, Example 3 (oligo and PLGA added at the same time, 48 well plates); conditions: for IFN-α / IFN-γ: oligo 20 μg/ml, PLGA 250 μg/ml, 24 hours
Protocol: as §1, §2, §3

[6] = delivered as IMO/MC complexes (cPLGA)

5′-TCGTT-3′ [Oligonucleotide 5-2]
immunomodulatory activity ([1]; delivered alone): inactive
immunomodulatory activity [1, 6]: highly active
IFN-α ([1]; donor 28051): 1 pg/mL
IFN-γ ([1]; donor 28051): 1 pg/mL
IFN-α ([1]; donor 28052): 5 pg/mL
IFN-γ ([1]; donor 28052): 0 pg/mL
IFN-α ([1]; donor 28053): 0 pg/mL
IFN-γ ([1]; donor 28053): 0 pg/mL
IFN-α ([1]; donor 28054): 2 pg/mL
IFN-γ ([1]; donor 28054): 1 pg/mL
IFN-α Mean [1]: 2 pg/mL
IFN-γ Mean [1]: 0 pg/mL
immunomodulatory activity ([2]; combined with cPLGA): active in two of four donors
IFN-α ([2]; donor 28115): 0 pg/mL
IFN-γ ([2]; donor 28115): 8 pg/mL
IFN-α ([2]; donor 28116): 0 pg/mL
IFN-γ ([2]; donor 28116): 4 pg/mL
IFN-α ([2]; donor 28117): 0 pg/mL
IFN-γ ([2]; donor 28117): 8 pg/mL
IFN-α ([2]; donor 28118): 0 pg/mL
IFN-γ ([2]; donor 28118): 0 pg/mL
IFN-α Mean [2]: 0 pg/mL
IFN-γ Mean [2]: 5 pg/mL
IFN-α ([3]; donor 28044): 0 pg/mL
IFN-γ ([3]; donor 28044): 4 pg/mL
IFN-α ([3]; donor 28045): 0 pg/mL
IFN-γ ([3]; donor 28045): 0 pg/mL
IFN-α Mean [3]: 0 pg/mL
IFN-γ Mean [3]: 2 pg/mL

5′-TCGTTT-3′ [Oligonucleotide 6-2]
immunomodulatory activity ([1]; delivered alone): inactive
immunomodulatory activity [1, 6]: highly active
IFN-α ([1]; donor 28051): 0 pg/mL
IFN-γ ([1]; donor 28051): 1 pg/mL
IFN-α ([1]; donor 28052): 2 pg/mL
IFN-γ ([1]; donor 28052): 0 pg/mL
IFN-α ([1]; donor 28053): 10 pg/mL
IFN-γ ([1]; donor 28053): 3 pg/mL
IFN-α ([1]; donor 28054): 0 pg/mL
IFN-γ ([1]; donor 28054): 1 pg/mL
IFN-α Mean [1]: 3 pg/mL
IFN-γ Mean [1]: 1 pg/mL
IFN-α ([2]; donor 28115): 0 pg/mL
IFN-γ ([2]; donor 28115): 3 pg/mL
IFN-α ([2]; donor 28116): 0 pg/mL
IFN-γ ([2]; donor 28116): 0 pg/mL
IFN-α ([2]; donor 28117): 0 pg/mL
IFN-γ ([2]; donor 28117): 5 pg/mL
IFN-α ([2]; donor 28118): 0 pg/mL
IFN-γ ([2]; donor 28118): 0 pg/mL
IFN-α Mean [2]: 0 pg/mL
IFN-γ Mean [2]: 2 pg/mL
immunomodulatory activity ([4]; delivered as oligonucleotide/MC complex (cPLGA)): highly active
IFN-α ([4]; donor 28075): 36 pg/mL
IFN-γ ([4]; donor 28075): 8 pg/mL
IFN-α ([4]; donor 28076): 6 pg/mL
IFN-γ ([4]; donor 28076): 18 pg/mL
IFN-α ([4]; donor 28077): 66 pg/mL
IFN-γ ([4]; donor 28077): 5 pg/mL
IFN-α ([4]; donor 28078): 101 pg/mL
IFN-γ ([4]; donor 28078): 14 pg/mL
IFN-α Mean ([4]; mean of donors 28075-28078): 53 pg/mL
IFN-γ Mean ([4]; mean of donors 28075-28078): 11 pg/mL
IFN-α ([3]; donor 28044): 0 pg/mL
IFN-γ ([3]; donor 28044): 30 pg/mL
IFN-α ([3]; donor 28045): 0 pg/mL
IFN-γ ([3]; donor 28045): 0 pg/mL
IFN-α Mean [3]: 0 pg/mL
IFN-γ Mean [3]: 15 pg/mL

5′-TGACTGTGAACCTTAGAGATGA-3′ (DNA, all phosphorothioate, methylation of C not given here) [ISS−, reference compound]
IFN-α ([1]; donor 28051): 0 pg/mL
IFN-γ ([1]; donor 28051): 5 pg/mL
IFN-α ([1]; donor 28052): 3 pg/mL
IFN-γ ([1]; donor 28052): 2 pg/mL
IFN-α ([1]; donor 28053): 1 pg/mL
IFN-γ ([1]; donor 28053): 3 pg/mL
IFN-α ([1]; donor 28054): 5 pg/mL
IFN-γ ([1]; donor 28054): 2 pg/mL
IFN-α Mean [1]: 2 pg/mL
IFN-γ Mean [1]: 3 pg/mL
IFN-α ([2]; donor 28115): 0 pg/mL
IFN-γ ([2]; donor 28115): 20 pg/mL
IFN-α ([2]; donor 28116): 0 pg/mL
IFN-γ ([2]; donor 28116): 22 pg/mL
IFN-α ([2]; donor 28117): 0 pg/mL
IFN-γ ([2]; donor 28117): 334 pg/mL
IFN-α ([2]; donor 28118): 0 pg/mL
IFN-γ ([2]; donor 28118): 14 pg/mL
IFN-α Mean [2]: 0 pg/mL
IFN-γ Mean [2]: 98 pg/mL
IFN-α ([5]; donor 28033): 0 pg/mL
IFN-γ ([5]; donor 28033): 3 pg/mL
IFN-α ([5]; donor 28034): 31 pg/mL
IFN-γ ([5]; donor 28034): 8 pg/mL
IFN-α Mean ([5]; mean of donors 28033, 28034): 15 pg/mL
IFN-γ Mean ([5]; mean of donors 28033, 28034): 5 pg/mL
IFN-α ([4]; donor 28075): 41 pg/mL
IFN-γ ([4]; donor 28075): 15 pg/mL
IFN-α ([4]; donor 28076): 23 pg/mL
IFN-γ ([4]; donor 28076): 15 pg/mL
IFN-α ([4]; donor 28077): 54 pg/mL
IFN-γ ([4]; donor 28077): 12 pg/mL
IFN-α ([4]; donor 28078): 27 pg/mL
IFN-γ ([4]; donor 28078): 16 pg/mL
IFN-α Mean ([4]; mean of donors 28075-28078): 36 pg/mL
IFN-γ Mean ([4]; mean of donors 28075-28078): 15 pg/mL
IFN-α Mean ([4]; mean of volunteers 154-157): 0 pg/mL
IFN-γ Mean ([4]; mean of volunteers 154-157): 43 pg/mL
IFN-α ([4]; volunteer 154): 0 pg/mL
IFN-γ ([4]; volunteer 154): 0 pg/mL
IFN-α ([4]; volunteer 155): 0 pg/mL
IFN-γ ([4]; volunteer 155): 17 pg/mL
IFN-α ([4]; volunteer 156): 0 pg/mL
IFN-γ ([4]; volunteer 156): 58 pg/mL
IFN-α ([4]; volunteer 157): 0 pg/mL
IFN-γ ([4]; volunteer 157): 98 pg/mL
IFN-α ([3]; donor 28044): 0 pg/mL
IFN-γ ([3]; donor 28044): 410 pg/mL
IFN-α ([3]; donor 28045): 0 pg/mL
IFN-γ ([3]; donor 28045): 51 pg/mL
IFN-α Mean [3]: 0 pg/mL
IFN-γ Mean [3]: 231 pg/mL
